Test results as given in article PMC4755756, “Catalysis-dependent selenium incorporation and migration in the nitrogenase active site iron-molybdenum cofactor” (eLife, 2015).

Legend:
[1] = target: T1, nitrogenase MoFe-protein (Av1) (Azotobacter vinelandii, UniProt P07328); experiment: inhibition of acetylene reduction, Dixon plot (gas chromatography); Se incorporation seen by crystallography; format: biochemical
T1 construct: gene nifD; purified Av1, (αβ)2 tetramer, with Av2; with MoFe-protein β subunit (NifK); Fe-protein (Av2)
Text: inhibition of acetylene reduction, Dixon plot (gas chromatography); Se incorporation seen by crystallography on nitrogenase MoFe-protein (Av1) | SeCN^- is a potent, yet reversible inhibitor of acetylene reduction

[2] = target: T1, nitrogenase MoFe-protein (Av1); experiment: inhibition of acetylene reduction, Dixon plot (gas chromatography); format: biochemical

Compound | Ki [1] [mM] | Ki [2] [mM]
N#C[SeH] [selenocyanate] | 0.41 ± 0.03 | 
N#CS [thiocyanate] |  | 12.7 ± 1.2
